According to patent publication US20260167621A1, “Three Cluster Galactose Type Compound, Conjugate, Making Method and Use Thereof” (GUANGZHOU RIBOBIO CO., LTD., priority 2023, published 2026):

Legend:
PCSK9 mRNA = assay: Knock down effect on the expression of PCSK9 mRNA in Hep3B cell; type: cell-based, human; details: Lipofectamine 3000 transfection, qPCR, actin as reference gene
Protocol: Referring to Chinese Patent Application No. CN109957567B, the synthesized siRNA sequences were shown below:
The compound G2, G4, G5 obtained from the examples 2, 4, 5, bound to the above mentioned siRNA respectively to form conjugates which were shown in Table 4.
Hep3B cell (ATCC, HB-8064) was cultured, the cell density was about 30% to 50% before transfection and relatively uniformly.
Each conjugate samples of Table 4 were prepared to 20 μM storage solution, and were set as experimental groups. Except the experimental groups, normal cell control group (Blank), transfection reagent control group (Mock), negative control group 1 (NC001, Ribobio, siM21 1215011852) and negative control group 2 (NC002, Ribobio, siM21 1215011852) were also set. Referring to the specification of Lipofectamine™ 3000 transfection reagent (Thermo Fisher, L300001), cells were transfected. Both the experimental groups and the control groups had 3 replicates.
The total RNA extraction was performed with reference to the specification of MagZol Reagent (Magen, R4801).
The reverse transcription was performed with reference to the specification of riboSCRIPT™ Reverse Transcription Kit (Ribobio, C11027-2).
Human house keeping gene actin was used for reference gene, forward primer sequence of actin gene: 5′-[…]-3′ (SEQ ID NO: 5), reverse primer sequence: 5′-[…]-3′ (SEQ ID NO: 6); forward primer sequence of human PCSK9 gene: 5′-[…]-3′ (SEQ ID NO: 7), reverse primer sequence: 5′-[…]-3′ (SEQ ID NO: 8). 2×SYBR Green Mix (Ribobio, C10712F −1 m l) and fluorescence quantitative PCR instrument (BioRad, CFX96) were used to perform real time fluorescence quantitative PCR reaction. After PCR reaction, the Ct deviation of 9 replicates of a sample (3 transfection replicates×3 qPCR duplicates) should be ±0.5. Then CFX 2.1 software was used for quantitative analysis.

[1] = biological target: T1, Hepatocyte ASGPR receptor (Homo sapiens, UniProt P07306); assay: Binding affinity test with hepatocyte ASGPR receptor (Cy5 flow cytometry, binding saturation curve); details: for Bmax: average Cy5 fluorescence intensity of live cells minus blank, one site binding (hyperbola) fit; for Bmax / Kd: 0.9-100 nM, 2 hours on ice; for Kd: one site binding (hyperbola) fit of Cy5 fluorescence, read-out: Kd (dissociation equilibrium constant); for binding affinity with ASGPR receptor: statement in words from Table 3
T1 construct: endogenous in cells
T1 sequence (P07306 1-291): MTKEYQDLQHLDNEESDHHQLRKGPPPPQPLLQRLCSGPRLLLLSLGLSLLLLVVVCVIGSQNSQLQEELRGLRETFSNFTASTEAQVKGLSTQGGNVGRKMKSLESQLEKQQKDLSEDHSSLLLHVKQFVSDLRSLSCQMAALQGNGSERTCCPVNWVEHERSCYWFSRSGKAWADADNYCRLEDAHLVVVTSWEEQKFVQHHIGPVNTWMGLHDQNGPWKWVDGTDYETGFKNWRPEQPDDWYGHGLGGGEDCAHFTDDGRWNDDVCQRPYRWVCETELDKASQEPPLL
T1 sequence (P07307 1-311 partner): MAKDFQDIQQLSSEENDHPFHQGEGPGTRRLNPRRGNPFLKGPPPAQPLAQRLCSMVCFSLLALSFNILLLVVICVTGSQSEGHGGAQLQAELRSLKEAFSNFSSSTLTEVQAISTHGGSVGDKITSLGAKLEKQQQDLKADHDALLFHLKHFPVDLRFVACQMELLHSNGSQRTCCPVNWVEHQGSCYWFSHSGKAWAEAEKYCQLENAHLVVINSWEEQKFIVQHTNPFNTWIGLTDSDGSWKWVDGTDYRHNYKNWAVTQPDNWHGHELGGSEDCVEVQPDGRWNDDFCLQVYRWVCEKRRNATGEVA
Protocol: Embodiment 1: Binding Affinity Test with Hepatocyte ASGPR Receptor
The compound G1, G4, G5 obtained from the examples 1, 4, 5, bound to the above mentioned siRNA respectively to form conjugates which were shown in Table 1.
G1-12, G4-12, G5-12 (1 uM) were diluted respectively in a gradient according to the following Table 2.
The cell concentration was diluted by DMEM culture medium with 2% FBS to 4*10^5 cells/mL.
200 μL cells of each sample and 200 μL siRNA were mixed uniformly, 200 μL cells of the blank control group and 200 μL culture medium were mixed uniformly, and were added in 3 wells of 96-well plate with U-shaped bottom, 100 μL each well. Samples of each concentration of all siRNA were placed in the ice box after sampling, and were placed in decolorization shaker and incubated in dark for 2 hours.
50 g of 96-well plate with U-shaped bottom was centrifuged for 2 minutes at 4° C. 80 μL supernatant was aspirated and discarded by pipette, 10 μg/mL propidium iodide was prepared by using of PBS with 2% FBS, 100 μL PI reagent was added in each well and was stained for 15 minutes. After staining, 50 g of 96-well plate with U-shaped bottom was centrifuged for 2 minutes at 4° C. After washed by PBS with 2% FBS for twice, 100 μL PBS with 2% FBS was added for resuspension, flow cytometer was used to test and count the average Cy5 fluorescence intensity of live cell population.

Row | Substance | PCSK9 mRNA relative expression value, the average relative expression (PCSK9 mRNA) | Bmax [1] | Kd [1] [nM] | binding affinity with ASGPR receptor [1]
1 | G2-34: G2 bound to 5' end of SEQ ID NO: 3, paired with 5'-phos* SEQ ID NO: 4 (PCSK9 siRNA); structure Z2 (sense GGUCUGGAAUGCAAAGUCA; antisense UGACUUUGCAUUCCAGACC; G2 ligand 5'; 5'-phosphate; modified_base join(1,4,5,6,10,11,12,13,14,15,16) OTHER; 2'-O-methyl modification; modified_base join(2,3,17,18,19) OTHER; thiophosphorylated skeleton modification and 2'-O-methyl modification; modified_base join(7,8,9) OTHER; 2'-fluoro modification; modified_base join(1,5,7,9,11,13,15) OTHER; modified_base join(3,17,18,19) OTHER; modified_base 2 OTHER; thiophosphorylated skeleton modification and 2'-fluoro modification; modified_base join(4,6,8,10,12,14,16) OTHER) [Compound G2-34] | 0.34 | – | – | –
2 | G5-34: G5 bound to 5' end of SEQ ID NO: 3 via C6 amino modification, paired with 5'-phos* SEQ ID NO: 4; structure Z5 (sense GGUCUGGAAUGCAAAGUCA; antisense UGACUUUGCAUUCCAGACC; G5 ligand via C6 amino; 5'-phosphate; modified_base join(1,4,5,6,10,11,12,13,14,15,16) OTHER; 2'-O-methyl modification; modified_base join(2,3,17,18,19) OTHER; thiophosphorylated skeleton modification and 2'-O-methyl modification; modified_base join(7,8,9) OTHER; 2'-fluoro modification; modified_base join(1,5,7,9,11,13,15) OTHER; modified_base join(3,17,18,19) OTHER; modified_base 2 OTHER; thiophosphorylated skeleton modification and 2'-fluoro modification; modified_base join(4,6,8,10,12,14,16) OTHER) [Compound G5-34] | 0.33 | – | – | –
3 | G5-12: G5 bound to 5' end of SEQ ID NO: 1 via C6 amino modification, paired with 5'-Cy5 SEQ ID NO: 2; structure Z5 (sense GUAUGUUGCCCGUUUGUCC; antisense GGACAAACGGGCAACAUACCU; G5 ligand via C6 amino; Cy5 label; modified_base join(1,5,8,12,16) OTHER; deoxyribonucleotide modification; modified_base 3 OTHER; thiophosphorylated skeleton modification and deoxyribonucleotide modification; modified_base join(4,6,7,9,10,11,13,14,15,17) OTHER; 2'-fluoro modification; modified_base join(2,18,19) OTHER; thiophosphorylated skeleton modification and 2'-fluoro modification; modified_base join(1,5,7,9,11,13,15,17) OTHER; 2'-O-methyl modification; modified_base join(3,19,20,21) OTHER; thiophosphorylated skeleton modification and 2'-O-methyl modification; modified_base join(2,4) …) [Compound G5-12] | – | 199232 | 3.69 | reach a higher level
4 | G4-12: G4 bound to 5' end of SEQ ID NO: 1 via C6 amino modification, paired with 5'-Cy5 SEQ ID NO: 2; structure Z4 (sense GUAUGUUGCCCGUUUGUCC; antisense GGACAAACGGGCAACAUACCU; G4 ligand via C6 amino; Cy5 label; modified_base join(1,5,8,12,16) OTHER; deoxyribonucleotide modification; modified_base 3 OTHER; thiophosphorylated skeleton modification and deoxyribonucleotide modification; modified_base join(4,6,7,9,10,11,13,14,15,17) OTHER; 2'-fluoro modification; modified_base join(2,18,19) OTHER; thiophosphorylated skeleton modification and 2'-fluoro modification; modified_base join(1,5,7,9,11,13,15,17) OTHER; 2'-O-methyl modification; modified_base join(3,19,20,21) OTHER; thiophosphorylated skeleton modification and 2'-O-methyl modification; modified_base join(2,4) …) [Compound G4-12] | – | 239297 | 6.37 | reach a higher level
5 | G4-34: G4 bound to 5' end of SEQ ID NO: 3 via C6 amino modification, paired with 5'-phos* SEQ ID NO: 4; structure Z4 (sense GGUCUGGAAUGCAAAGUCA; antisense UGACUUUGCAUUCCAGACC; G4 ligand via C6 amino; 5'-phosphate; modified_base join(1,4,5,6,10,11,12,13,14,15,16) OTHER; 2'-O-methyl modification; modified_base join(2,3,17,18,19) OTHER; thiophosphorylated skeleton modification and 2'-O-methyl modification; modified_base join(7,8,9) OTHER; 2'-fluoro modification; modified_base join(1,5,7,9,11,13,15) OTHER; modified_base join(3,17,18,19) OTHER; modified_base 2 OTHER; thiophosphorylated skeleton modification and 2'-fluoro modification; modified_base join(4,6,8,10,12,14,16) OTHER) [Compound G4-34] | 0.41 | – | – | –
